Tested on: Staphylococcus aureus (ATCC 6538)
Assay: Minimum concentration for total antimicrobial activity, AOAC method 955.15 (Phenol Coefficient Method) with minor modifications
Type: cell-based

SMILES | antimicrobial activity (in words) | Minimal Concentration (minimum concentration for total antimicrobial activity, incorporated into composition F, contact time 10 minutes, turbidity after 72 hours at 37° C.) [v/v %]
Cc1ccc(C(C)C)cc1O [Carvacrol] | excellent antimicrobial activity | 0.07
Cc1ccc(C(C)C)c(O)c1 [Thymol] | excellent antimicrobial activity | 

Source: patent publication US9451763B2, “Disinfectant formulation” (Laboratoire M2, priority 2008, dated 2016)
